Assay results taken from PubChem BioAssay AID330 (DTP/NCI, 2004).
Several values for one entry are separate records, joined by “and”; a condition that tells them apart may be missing. Identical values can stand only once. Inconclusive results and toxic doses are left out. How the source made its calls: active means survival T/C of 150% or more; inactive means T/C below 125% in these data.

Test system: P388 leukemia ip, CD2F1 mice, survival T/C
Assay: NCI In Vivo Anticancer Drug Screen. Data for tumor model P388 Leukemia (intraperitoneal) in CD2F1 (CDF1) mice
Details: endpoint: median survival time, higher = longer survival
Summary of the method: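 Mice carrying the transplanted tumor received test compound or vehicle. Survival was recorded in each group, and the value is the treated-group measurement divided by that of the vehicle-treated control group.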

[1] = dose: 60.0 mg/kg/injection, schedule: Q01DX005 (ip), vehicle: saline with Tween-80
[2] = dose: 120.0 mg/kg/injection, schedule: Q01DX005 (ip), vehicle: saline with Tween-80
[3] = dose: 50.0 mg/kg/injection, schedule: Q01DX005 (ip), vehicle: Klucel (hydroxypropylcellulose) (HPC)
[4] = dose: 100.0 mg/kg/injection, schedule: Q01DX005 (ip), vehicle: Klucel (hydroxypropylcellulose) (HPC)
[5] = dose: 200.0 mg/kg/injection, schedule: Q01DX005 (ip), vehicle: Klucel (hydroxypropylcellulose) (HPC)

Measured: T/C

Cc1ccc(/C=C/C(=O)C(CN(C)C)CN(C)C)cc1C
inactive: dose: 6.25 mg/kg/injection, schedule: Q01DX005 (ip), vehicle: saline with Tween-80 100 % of control | dose: 12.5 mg/kg/injection, schedule: Q01DX005 (ip), vehicle: saline with Tween-80 109 % of control

O=C1c2ccccc2C(=O)c2c(NCCNCCNCCO)ccc(NCCNCCNCCO)c21
inactive: dose: 8.0 mg/kg/injection, schedule: Q01DX009 (ip), vehicle: acid diluted with saline 94 % of control | dose: 16.0 mg/kg/injection, schedule: Q01DX009 (ip), vehicle: acid diluted with saline 101 % of control | dose: 25.0 mg/kg/injection, schedule: Q01DX009 (ip), vehicle: water 111 % of control and 120 % of control | dose: 32.0 mg/kg/injection, schedule: Q01DX009 (ip), vehicle: acid diluted with saline 96 % of control | dose: 50.0 mg/kg/injection, schedule: Q01DX009 (ip), vehicle: water 111 % of control | dose: 64.0 mg/kg/injection, schedule: Q01DX009 (ip), vehicle: acid diluted with saline 98 % of control

CC(C)Cc1cccc2c1CCCC2
inactive: dose: 50.0 mg/kg/injection, schedule: Q01DX005 (ip), vehicle: suspension in saline 97 % of control | dose: 100.0 mg/kg/injection, schedule: Q01DX005 (ip), vehicle: suspension in saline 97 % of control | dose: 200.0 mg/kg/injection, schedule: Q01DX005 (ip), vehicle: suspension in saline 101 % of control

COc1cc2c(c3c1c(=O)c1ccccc1n3C)C=C([N+](=O)[O-])C(C)(C)O2
inactive: dose: 3.0 mg/kg/injection, schedule: Q01DX005 (ip), vehicle: saline + Tween-80 + alcohol 116 % of control | dose: 6.0 mg/kg/injection, schedule: Q01DX005 (ip), vehicle: saline + Tween-80 + alcohol 116 % of control | dose: 12.0 mg/kg/injection, schedule: Q01DX005 (ip), vehicle: saline + Tween-80 + alcohol 108 % of control

CCOCN(COCC)C(C)Cc1ccccc1 (stereo unspecified)
inactive: dose: 3.13 mg/kg/injection, schedule: Q01DX009 (ip), vehicle: saline with Tween-80 104 % of control | dose: 6.25 mg/kg/injection, schedule: Q01DX009 (ip), vehicle: saline with Tween-80 107 % of control | dose: 12.5 mg/kg/injection, schedule: Q01DX009 (ip), vehicle: saline with Tween-80 114 % of control | dose: 25.0 mg/kg/injection, schedule: Q01DX009 (ip), vehicle: saline with Tween-80 123 % of control

O=C(CC(=O)C(F)(F)F)c1cccs1.O=C(CC(=O)C(F)(F)F)c1cccs1.O=C(CC(=O)C(F)(F)F)c1cccs1.[Tb]
inactive: dose: 50.0 mg/kg/injection, schedule: Q01DX009 (ip), vehicle: saline 86 % of control | dose: 100.0 mg/kg/injection, schedule: Q01DX009 (ip), vehicle: saline 86 % of control | dose: 200.0 mg/kg/injection, schedule: Q01DX009 (ip), vehicle: saline 89 % of control

Cn1/c(=N\N=C\c2ccccc2OCCO)sc2ccccc21
inactive: dose: 50.0 mg/kg/injection, schedule: Q01DX009 (ip), vehicle: saline + alcohol 103 % of control | dose: 100.0 mg/kg/injection, schedule: Q01DX009 (ip), vehicle: saline + alcohol 100 % of control | dose: 200.0 mg/kg/injection, schedule: Q01DX009 (ip), vehicle: saline + alcohol 101 % of control

Cc1cccc(-c2nnc(N)o2)c1[N+](=O)[O-]
inactive: [1] 108 % of control | [2] 108 % of control | dose: 240.0 mg/kg/injection, schedule: Q01DX005 (ip), vehicle: saline with Tween-80 101 % of control

COc1ccc(OC)c2cc3c(cc12)C(=O)C(C)=C(C)C3=O
inactive: [3] 89 % of control | [4] 86 % of control | [5] 88 % of control

NC(=Nc1ccc(S(=O)(=O)Nc2cnc3ccccc3n2)cc1)/N=C(/N)Nc1ccc(Br)cc1
inactive: dose: 50.0 mg/kg/injection, schedule: Q01DX005 (ip), vehicle: saline with Tween-80 99 % of control | dose: 100.0 mg/kg/injection, schedule: Q01DX005 (ip), vehicle: saline with Tween-80 100 % of control | dose: 200.0 mg/kg/injection, schedule: Q01DX005 (ip), vehicle: saline with Tween-80 99 % of control

CN(C)C(=O)C1CCC1
inactive: dose: 100.0 mg/kg/injection, schedule: Q04DX003 (ip), vehicle: saline with Tween-80 95 % of control | dose: 200.0 mg/kg/injection, schedule: Q04DX003 (ip), vehicle: saline with Tween-80 100 % of control | dose: 400.0 mg/kg/injection, schedule: Q04DX003 (ip), vehicle: saline with Tween-80 100 % of control

Cn1c(=O)c2c(c3cc(O)ccc31)OC(C(C)(C)O)C2 (stereo unspecified)
inactive: [3] 95 % of control | [4] 96 % of control | [5] 86 % of control

COc1ccc(/C=C/C(=O)C(C)(C)CN(C)CCN(C)C)cc1
inactive: [1] 100 % of control | [2] 109 % of control
